The values below come from BindingDB's records for doi:10.1007/pl00005326 (Schering-Plough Research Institute, 1999).

pKi: −log10 of the molar value.

This test deals with T1, Adenosine receptor A3 (Homo sapiens, UniProt P0DMS8).
T1 sequence (P0DMS8 whole entry): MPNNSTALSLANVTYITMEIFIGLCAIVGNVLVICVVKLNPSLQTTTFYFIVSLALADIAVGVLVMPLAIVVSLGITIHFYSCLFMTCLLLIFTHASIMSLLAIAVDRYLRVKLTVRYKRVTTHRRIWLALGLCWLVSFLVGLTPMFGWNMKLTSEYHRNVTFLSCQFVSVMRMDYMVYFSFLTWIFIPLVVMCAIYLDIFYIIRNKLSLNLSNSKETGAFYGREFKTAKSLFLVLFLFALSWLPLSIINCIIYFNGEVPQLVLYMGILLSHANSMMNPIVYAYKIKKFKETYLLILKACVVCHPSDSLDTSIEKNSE
For `Nc1nc(NCCc2ccc(O)cc2)nc2nc(-c3ccco3)nn12`, the negative-log Ki (pKi) (as a rule, the Ki on a negative log10 scale, so that one unit is a factor of ten) was less than 5.00.
As to `Nc1nc2ccc(Cl)cc2c2nc(-c3ccco3)nn12`, the pKi was 7.02.
Under `Nc1nc2c(cnn2CCc2ccccc2)c2nc(-c3ccco3)nn12` stands less than 5.00.
